{
  "source": "patent US20260373165A1",
  "about": "“PHARMACEUTICAL COMBINATIONS AND COMPOSITIONS, AND METHODS OF USE THEREOF” (SHENZHEN HIGHTIDE BIOPHARMACEUTICAL LTD., priority 2022, published 2026)",
  "format_in_all_cases": "in vivo, mouse (C57BL/6J male, 60% HFD DIO)",
  "key": {"[1]": {"assay": "Example 2: body fat mass by MRI on day 23", "excerpt": "(§1) After 5-6-week-old C57BL/6J male mice were acclimatized for 1 week, the weight of each mouse was weighed, and the mice were randomly divided into a control group and a model group by taking the weight as a main index, where 12 mice in the control group were fed with common feed (CD), and the mice in the remaining model group were fed with 60% high-fat feed (60% HFD) for 10-12 weeks to construct a DIO obesity model, with the average body weight being not less than 40 g. The mice fed with 60% HFD were grabbed and acclimatized with a solvent for 3 days, where the acclimatization with a solvent was performed by oral gavage of 0.5% CMC-Na, once daily.\n(§2) The food intake, the body weight, the body fat ratio, and the insulin level of the mice were respectively measured, followed by fasting blood glucose level, and the mice were randomly grouped according to Table 12 by taking the body weight as an index, and the remaining ungrouped mice were euthanized. After grouping, each group of mice was administered according to Table 12, the day of administration was defined as DO, and the administration volume of each drug was determined based on the results obtained by the calculation of 5 μL/g× mouse body weight (g).\n(§3) For the combined administration group, the administration sequence and the administration time were kept consistent at each administration. The mice were continuously fed with high-fat feed during the administration period until the administration was finished. During administration, 1 food intake was measured per week (difference in feed weights at an interval of 24 h was measured); each group of mice was weighed once daily; blood was collected from the tail tip on day 16 and day 30, respectively, so as to measure fasting blood glucose levels once (blood was collected after fasting from 9:00 am to 3:[…]); on day 24 of administration (D23), the body fat ratio and the lean mass of each group of mice were measured by MRI (the measurement period was kept consistent with that before grouping); after 25 days of administration intervention (day 24), each group of mice was fasted for 6 h and subjected to OGTT (0 min, 15 min, 30 min, 60 min, 90 min, 120 min) to detect their blood glucose levels; after 29 days of administration intervention (day 28), each group of mice was fasted for 6 h and subjected to OGTT (0 min, 15 min, 30 min, 60 min, 90 min, 120 min), and meanwhile subjected to blood sampling via submaxillary vein (0 min, 15 min, 30 min, about 30 μL of blood sampled each time), and then the blood plasma was separated for detecting the insulin level by ELISA, where the separated blood plasma was more than 10 μL; the next day (D30) at the end of administration was set as the test endpoint, and the mice were fasted for 6 h in the morning and subjected to fasting blood glucose level measurement; subsequently, the mice were euthanized with CO2, blood was collected from the heart of each mouse for analysis, and each group of mice was dissected; the liver and subcutaneous, epididymal and mesenteric fat was collected, photographed and weighed, respectively.\nThe body weight, the body fat mass and the body fat ratio of each animal in groups G1 to G8 were measured on day 23 and averaged for each group, and the results are shown in Table 15 below, and FIGS. 21 and 22."}, "[2]": {"assay": "Example 2: body weight and body weight change rate, combined administration of HTD1801 and dapagliflozin or empagliflozin in DIO obesity model", "details": "for Body weight (mean) / Body weight change rate: HTD1801 250 mpk, dapagliflozin 10 mpk, empagliflozin 15 mpk p.o. QD, semaglutide 10 nmol/kg s.c. Q3D", "excerpt": "as §1, §2, §3"}, "[3]": {"assay": "Example 2: lean mass by MRI on day 23", "excerpt": "as §1, §2, §3\nThe body weight, the lean mass and the lean ratio of each animal in groups G1 to G8 were measured on day 23 and averaged for each group, and the results are shown in Table 16 below, and FIGS. 23 and 24."}, "[4]": {"details": "mean, day 23, HTD1801 250 mpk, dapagliflozin 10 mpk, empagliflozin 15 mpk p.o. QD"}},
  "data": [
    {"compound": "CCOc1ccc(Cc2cc([C@@H]3O[C@H](CO)[C@@H](O)[C@H](O)[C@H]3O)ccc2Cl)cc1", "note": "[Dapagliflozin, dapagliflozin]", "values": [
      {"measurement": "increase of body fat relative to control group G2", "setting": "[1]; day 23", "value": "about 8.6%"},
      {"measurement": "body fat mass and body fat ratio (in words)", "setting": "[1]; day 23, relative to control group G2", "value": "increased"},
      {"measurement": "Body weight", "setting": "[1]; mean, day 23 (Table 15), HTD1801 250 mpk, dapagliflozin 10 mpk, empagliflozin 15 mpk p.o. QD", "value": 43.8, "unit": "g"},
      {"measurement": "Body fat ratio", "setting": "[1]; [4]", "value": 48.8, "unit": "%"},
      {"measurement": "Fat (body fat mass)", "setting": "[1]; [4]", "value": 21.4, "unit": "g"},
      {"measurement": "body weight decrease", "setting": "[2]; dapagliflozin 10 mpk p.o. QD", "value": 3.4, "unit": "%"},
      {"measurement": "Body weight (mean)", "setting": "[2]; day 0 (baseline)", "value": 45.4, "unit": "g"},
      {"measurement": "Body weight change rate", "setting": "[2]; day 0 (baseline)", "value": 0.0, "unit": "%"},
      {"measurement": "Body weight (mean)", "setting": "[2]; day 1", "value": 45.5, "unit": "g"},
      {"measurement": "Body weight change rate", "setting": "[2]; day 1", "value": 0.3, "unit": "%"},
      {"measurement": "Body weight (mean)", "setting": "[2]; day 2", "value": 45.3, "unit": "g"},
      {"measurement": "Body weight change rate", "setting": "[2]; day 2", "value": "−0.1", "unit": "%"},
      {"measurement": "Body weight (mean)", "setting": "[2]; day 3", "value": 45.1, "unit": "g"},
      {"measurement": "Body weight change rate", "setting": "[2]; day 3", "value": "−0.6", "unit": "%"},
      {"measurement": "Body weight (mean)", "setting": "[2]; day 4", "value": 44.8, "unit": "g"},
      {"measurement": "Body weight change rate", "setting": "[2]; day 4", "value": "−1.2", "unit": "%"},
      {"measurement": "Body weight (mean)", "setting": "[2]; day 5", "value": 44.3, "unit": "g"},
      {"measurement": "Body weight change rate", "setting": "[2]; day 5", "value": "−2.4", "unit": "%"},
      {"measurement": "Body weight (mean)", "setting": "[2]; day 6", "value": 44.1, "unit": "g"},
      {"measurement": "Body weight change rate", "setting": "[2]; day 6", "value": "−2.7", "unit": "%"},
      {"measurement": "Body weight (mean)", "setting": "[2]; day 7", "value": 44.0, "unit": "g"},
      {"measurement": "Body weight change rate", "setting": "[2]; day 7", "value": "−2.9", "unit": "%"},
      {"measurement": "Body weight (mean)", "setting": "[2]; day 8", "value": 43.7, "unit": "g"},
      {"measurement": "Body weight change rate", "setting": "[2]; day 8", "value": "−3.7", "unit": "%"},
      {"measurement": "Body weight (mean)", "setting": "[2]; day 9", "value": 43.4, "unit": "g"},
      {"measurement": "Body weight change rate", "setting": "[2]; day 9", "value": "−4.4", "unit": "%"},
      {"measurement": "Body weight (mean)", "setting": "[2]; day 10", "value": 43.5, "unit": "g"},
      {"measurement": "Body weight change rate", "setting": "[2]; day 10", "value": "−4.2", "unit": "%"},
      {"measurement": "Body weight (mean)", "setting": "[2]; day 11", "value": 43.2, "unit": "g"},
      {"measurement": "Body weight change rate", "setting": "[2]; day 11", "value": "−4.7", "unit": "%"},
      {"measurement": "Body weight (mean)", "setting": "[2]; day 12", "value": 43.1, "unit": "g"},
      {"measurement": "Body weight change rate", "setting": "[2]; day 12", "value": "−4.9", "unit": "%"},
      {"measurement": "Body weight (mean)", "setting": "[2]; day 13", "value": 42.6, "unit": "g"},
      {"measurement": "Body weight change rate", "setting": "[2]; day 13", "value": "−6.1", "unit": "%"},
      {"measurement": "Body weight (mean)", "setting": "[2]; day 14", "value": 42.7, "unit": "g"},
      {"measurement": "Body weight change rate", "setting": "[2]; day 14", "value": "−6.0", "unit": "%"},
      {"measurement": "Body weight (mean)", "setting": "[2]; day 15", "value": 42.9, "unit": "g"},
      {"measurement": "Body weight change rate", "setting": "[2]; day 15", "value": "−5.5", "unit": "%"},
      {"measurement": "Body weight (mean)", "setting": "[2]; day 16", "value": 42.8, "unit": "g"},
      {"measurement": "Body weight change rate", "setting": "[2]; day 16", "value": "−5.7", "unit": "%"},
      {"measurement": "Body weight (mean)", "setting": "[2]; day 17", "value": 43.2, "unit": "g"},
      {"measurement": "Body weight change rate", "setting": "[2]; day 17", "value": "−4.7", "unit": "%"},
      {"measurement": "Body weight (mean)", "setting": "[2]; day 18", "value": 43.3, "unit": "g"},
      {"measurement": "Body weight change rate", "setting": "[2]; day 18", "value": "−4.5", "unit": "%"},
      {"measurement": "Body weight (mean)", "setting": "[2]; day 19", "value": 43.5, "unit": "g"},
      {"measurement": "Body weight change rate", "setting": "[2]; day 19", "value": "−4.2", "unit": "%"},
      {"measurement": "Body weight (mean)", "setting": "[2]; day 20", "value": 43.5, "unit": "g"},
      {"measurement": "Body weight change rate", "setting": "[2]; day 20", "value": "−4.1", "unit": "%"},
      {"measurement": "Body weight (mean)", "setting": "[2]; day 21", "value": 43.9, "unit": "g"},
      {"measurement": "Body weight change rate", "setting": "[2]; day 21", "value": "−3.3", "unit": "%"},
      {"measurement": "Body weight (mean)", "setting": "[2]; day 22", "value": 43.9, "unit": "g"},
      {"measurement": "Body weight change rate", "setting": "[2]; day 22", "value": "−3.3", "unit": "%"},
      {"measurement": "Body weight (mean)", "setting": "[2]; day 23", "value": 43.8, "unit": "g"},
      {"measurement": "Body weight change rate", "setting": "[2]; day 23", "value": "−3.5", "unit": "%"},
      {"measurement": "Body weight (mean)", "setting": "[2]; day 24", "value": 43.5, "unit": "g"},
      {"measurement": "Body weight change rate", "setting": "[2]; day 24", "value": "−4.2", "unit": "%"},
      {"measurement": "Body weight (mean)", "setting": "[2]; day 25", "value": 43.9, "unit": "g"},
      {"measurement": "Body weight change rate", "setting": "[2]; day 25", "value": "−3.2", "unit": "%"},
      {"measurement": "Body weight (mean)", "setting": "[2]; day 26", "value": 44.2, "unit": "g"},
      {"measurement": "Body weight change rate", "setting": "[2]; day 26", "value": "−2.5", "unit": "%"},
      {"measurement": "Body weight (mean)", "setting": "[2]; day 27", "value": 44.3, "unit": "g"},
      {"measurement": "Body weight change rate", "setting": "[2]; day 27", "value": "−2.4", "unit": "%"},
      {"measurement": "Body weight (mean)", "setting": "[2]; day 28", "value": 43.9, "unit": "g"},
      {"measurement": "Body weight change rate", "setting": "[2]; day 28", "value": "−3.2", "unit": "%"},
      {"measurement": "Body weight (mean)", "setting": "[2]; day 29", "value": 43.8, "unit": "g"},
      {"measurement": "Body weight change rate", "setting": "[2]; day 29", "value": "−3.4", "unit": "%"},
      {"measurement": "lean ratio (in words)", "setting": "[3]; day 23, relative to model control group G2", "value": "slightly decreased"},
      {"measurement": "Body weight", "setting": "[3]; mean, day 23 (Table 16), HTD1801 250 mpk, dapagliflozin 10 mpk, empagliflozin 15 mpk p.o. QD", "value": 43.8, "unit": "g"},
      {"measurement": "Lean (lean mass)", "setting": "[3]; [4]", "value": 4.3, "unit": "g"},
      {"measurement": "Lean ratio", "setting": "[3]; [4]", "value": 9.9, "unit": "%"}
    ]}
  ]
}
